Reference: publication PMC6177617 (British Journal of Pharmacology, 2018)
Read-outs that look alike come from different tables or passages of the source.

Target: dopamine D2 receptor (Homo sapiens, UniProt P14416)
Assay type: binding
[1] = kPCA, room temperature, PPHT tracer, N = 2, n = 2

Sequence of dopamine D2 receptor (P14416 whole entry): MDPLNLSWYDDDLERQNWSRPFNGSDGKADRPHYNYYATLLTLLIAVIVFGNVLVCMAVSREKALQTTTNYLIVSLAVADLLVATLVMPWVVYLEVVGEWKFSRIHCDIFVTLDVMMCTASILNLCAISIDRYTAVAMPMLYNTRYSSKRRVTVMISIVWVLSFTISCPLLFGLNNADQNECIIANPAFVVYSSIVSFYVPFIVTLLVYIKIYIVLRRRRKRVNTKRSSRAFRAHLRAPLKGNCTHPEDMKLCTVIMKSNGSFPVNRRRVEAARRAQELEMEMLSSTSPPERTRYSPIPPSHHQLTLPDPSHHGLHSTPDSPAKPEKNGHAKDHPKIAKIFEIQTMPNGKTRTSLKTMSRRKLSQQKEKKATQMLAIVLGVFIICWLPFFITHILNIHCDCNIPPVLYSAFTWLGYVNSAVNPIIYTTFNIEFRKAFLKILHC

Row | kon [1/(M*s)] | Compound | kon [1/(M*s)] [1]
1 | 2.26E + 06 1/(M*s) | O=C(CCCN1CCC(O)(c2ccc(Br)cc2)CC1)c1ccc(F)cc1 [Bromperidol] | –
2 | – | Fc1ccc(CN2CCC(Nc3ccc(C(F)(F)F)nn3)CC2)cc1F [JNJ‐37822681] | 7.33E + 05 1/(M*s)
3 | – | FC(F)(F)c1nnc(N2CCNCC2)cc1-c1ccccc1 [JNJ‐39269646] | 4.53E + 06 1/(M*s)
